The text below walks through data of US20080200405A1, “Drug Resistance Reversal In Neoplastic Disease” (priority 2007, published 2008).

For series [1], the system named is TNFα. Nature of the series: Measurement of LPS Induced-TNFα in THP-1 Cells. The series is classed as cell-based, human. To be noted: Homo sapiens, THP-1; read-out: TNFalpha IC50. The method, then: The lipid peroxidation assay method of Ohkawa, H.; Ohishi, N.; Yaki, K. Anal. Biochem. 1979, 95, 351 was used to evaluate […]. […] […] Cells were collected and spun at 1500 g for 10 minutes. Supernatant was collected and analyzed for TNFα.
Mean Percent Inhibition of TNF-alpha by compounds of the present invention is set forth in Table B. TNF-alpha inhibition data is set forth in Table B-1. OT-551 was used in both native form and in the form of nanoparticles. […] Other nitrogenous heterocyclic species of the invention are expected to show similar improvement in efficacy when disposed in nanoparticulate form.

Series [2] has as its system Doxorubicin resistant SaOS2 cells. Kind of series: Cancer cell viability (MTT) in the presence or absence of doxorubicin. To be noted: compound 50 ug/mL, 3 days. The series is classed as cell-based, human.

SMILES strings stand for the structures. Counter-ions that a name gives are not always drawn.

As usually defined, the melting point is the temperature of the solid-liquid transition. Turning to `CC1(C)CC(Oc2nsnc2C(=O)O)CC(C)(C)N1O.Cl`, the melting point was 209.1 °C (dec.).
For `CC1(C)CC(Oc2nsnc2N2CCN(C(=O)c3ccco3)CC2)CC(C)(C)N1O.Cl`, the melting point was 198.1 °C (dec.).
As for `CC1(C)CC(Oc2nc3ccccc3s2)CC(C)(C)N1O.Cl`, the melting point was 160 °C (dec.).
Consider `CC1(C)C=C(COc2ccccc2N2CCOCC2)C(C)(C)N1O.Cl`, for which the melting point was 155.7 °C (dec.).
With `Cc1c(C)c2c(c(C)c1O)CCC(C)(C(=O)NC1CC(C)(C)N(O)C(C)(C)C1)O2.Cl` (centres unmarked), the melting point was 174.9 °C (dec.).
Same read-out and setting: the figure for `COc1cc2c(cc1OC)CN(c1nsnc1OC1CC(C)(C)N(O)C(C)(C)C1)CC2.Cl` is 166.9 °C (dec.); for `CC1(C)CC(Nc2nc3ccccc3s2)CC(C)(C)N1O.Cl` it is 183 °C (dec.).
In the case of `COc1ccc2nc(NC3CC(C)(C)N(O)C(C)(C)C3)sc2c1.Cl`, the melting point is 220 °C (dec.).
In turn, `CC1(C)c2ccc(Br)cc2C(C)(C)N1O.Cl` gave a melting point of 214.1 °C.
As to `CC(C)(C)OC(=O)c1nsnc1OC1CC(C)(C)N(O)C(C)(C)C1.Cl`, the melting point was 197 °C (dec.).
On to `CC1(C)C=C(CO)C(C)(C)N1O` (as salt: chloride) [Compound 8, 2,5-dihydro-2,2,5,5-tetramethyl-1-hydroxyl-1H-pyrrol-3-yl)methanol hydrogen chloride], for which the melting point is 141.9 °C (dec.).
The same measure, in the same setting: the figure for `CC1(C)CC(Oc2nsnc2OC2CC(C)(C)N(O)C(C)(C)C2)CC(C)(C)N1O` (as salt: chloride) [Compound 14, 1-hydroxyl-4-(4-(2,2,6,6-tetramethylpiperidin-1-hydroxyl-4-yloxy)-1,2,5-thiadiazol-3-yloxy)-2,2,6,6-tetramethylpiperidine bis-hydrogen chloride] is 216.2 °C (dec.); for `CC1(C)CC(Oc2nsnc2C#N)CC(C)(C)N1O` (as salt: hydrochloride) [Compound 45] it is 179.2 °C (dec.); for `CC1(C)CC(O)C(C)(C)N1O` (centres unmarked) (as salt: salt) [Compound 7, 2,2,5,5-Tetramethyl-pyrrolidine-1,3-diol] it is 155.5 °C (dec.).
Turning to `CC1(C)CC(NS(C)(=O)=O)CC(C)(C)N1O` (as salt: salt) [Compound 10, 1-hydroxy-4-methanesulfonamido-2,2,6,6-tetramethylpiperidine], the melting point is 178.3 °C (dec.).
For orientation: IC50 means the concentration at which inhibition is half-maximal. On to `CC1(C)C=C(CO)CC(C)(C)N1O.Cl` [Compound 25, 1-hydroxy-1,2,3,6-tetrahydro-2,2,6,6-tetramethylpyridin-4-yl)methanol hydrogen chloride], for which, in series [1], the half-maximal inhibitory concentration (IC50) was determined as 30.9 µM.
With `CC1(C)CC(NC(=O)CCN2CCOCC2)CC(C)(C)N1O.Cl` [Compound 26, N-(1-hydroxy-2,2,6,6-tetramethylpiperidin-4-yl)-3-morpholinopropanamide hydrogen chloride], in series [1], the half-maximal inhibitory concentration (IC50) is at least 100 µM. Moreover, the entries for the “Mean OD (×10^−3), MTT viability” value in series [2] (Dox. 10^−6 M (+)) and in series [2] (absence of Dox. (−)) were 261.50 ×10^−3 and 1056.33 ×10^−3, respectively.
For the compound `CC1(C)CC(c2nn[nH]n2)CC(C)(C)N1O.Cl` [Compound 30, 1-hydroxy-2,2,6,6-tetramethyl-4-(2H-tetrazol-5-yl)piperidine hydrogen chloride], the IC50 in series [1] was at least 100 µM. Moreover, the “Mean OD (×10^−3), MTT viability” value is 310.00 ×10^−3 in series [2] (Dox. 10^−6 M (+)) and 1301.25 ×10^−3 in series [2] (absence of Dox. (−)).
On to `CC1(C)CC(NC(=O)C2CC2)CC(C)(C)N1O.Cl` [Compound 31, N-(1-hydroxy-2,2,6,6-tetramethylpiperidin-4-yl)cyclopropanecarboxamide hydrogen chloride], for which the IC50 in series [1] was 38.2 µM. In addition, the “Mean OD (×10^−3), MTT viability” value is reported as 322.25 ×10^−3 in series [2] (Dox. 10^−6 M (+)) and 1175.25 ×10^−3 in series [2] (absence of Dox. (−)).
Consider `CC1(C)CC(Oc2nsnc2N2CCOCC2)C(C)(C)N1O.Cl` (centres unmarked) [Compound 32, 4-(4-(1-hydroxy-2,2,5,5-tetramethylpyrrolidin-3-yloxy)-1,2,5-thiadiazol-3-yl)morpholine hydrogen chloride], for which, in series [1], the IC50 is at least 100 µM. Further, the “Mean OD (×10^−3), MTT viability” value in series [2] (Dox. 10^−6 M (+)) is recorded as 231.50 ×10^−3; in series [2] (absence of Dox. (−)), 985.67 ×10^−3.
Take `CC1(C)CC(CO)C(C)(C)N1O.Cl` (centres unmarked) [Compound 33, 1-hydroxy-2,2,5,5-tetramethylpyrrolidin-3-yl)methanol hydrogen chloride]: in series [1], the IC50 was found to be 55.7 µM.
Take `CC1(C)CC(CO)CC(C)(C)N1O.Cl` [Compound 34, (1-hydroxy-2,2,6,6-tetramethylpiperidin-4-yl)methanol hydrogen chloride]: the IC50 in series [1] was 2.4 µM. Besides, the “Mean OD (×10^−3), MTT viability” value in series [2] (Dox. 10^−6 M (+)) was 302.75 ×10^−3; in series [2] (absence of Dox. (−)), 1168.25 ×10^−3.
The like results for `CC1(C)C=C(CC2CNCCO2)C(C)(C)N1O.Cl.Cl` (centres unmarked) [Compound 36, ((1-hydroxy-2,5-dihydro-2,2,5,5-tetramethyl-1H-pyrrol-3-yl)methyl)morpholine bis-hydrogen chloride] were, in that order, 4 µM, 297.00 ×10^−3 and 1110.75 ×10^−3.
Take `CC1(C)CC(=O)C(C)(C)N1O.Cl` [Compound 37, 1-hydroxy-2,2,5,5-tetramethylpyrrolidin-3-one hydrogen chloride]: the IC50 in series [1] was at least 100 µM. For the same compound, the “Mean OD (×10^−3), MTT viability” value in series [2] (Dox. 10^−6 M (+)) was 366.25 ×10^−3; in series [2] (absence of Dox. (−)), 1329.75 ×10^−3.
Take `COc1cc(COC2CC(C)(C)N(O)C(C)(C)C2)cc(OC)c1OC.Cl` [Compound 48, 1-Hydroxyl-4-(3,4,5-trimethoxybenzyloxy)-2,2,6,6-tetramethylpiperidine hydrochloride]: the entries for the “Mean OD (×10^−3), MTT viability” value in series [2] (Dox. 10^−6 M (+)) and in series [2] (absence of Dox. (−)) were 50.67 ×10^−3 and 1118.00 ×10^−3, respectively.
For the compound `CC1(C)CC(NC(=O)CCCCC2CCSS2)CC(C)(C)N1O.Cl` (centres unmarked) [Compound 49, 5-(1,2-dithialan-3-yl)-N-(1-hydroxy-2,2,6,6-tetramethylpiperidin-4-yl)pentanamide hydrochloride], the melting point was 164.7 °C (dec.). The “Mean OD (×10^−3), MTT viability” value in series [2] (Dox. 10^−6 M (+)) was 195.00 ×10^−3. Further, the “Mean OD (×10^−3), MTT viability” value in series [2] (absence of Dox. (−)) is given as 1330.25 ×10^−3.
As for `COc1cc(C2=CC(C)(C)N(O)C(C)(C)C2)cc(OC)c1OC.Cl` [Compound 50, 1-Hydroxy-2,3,6-trihydro-4-(3,4,5-trimethoxyphenyl)-2,2,6,6-tetramethylpiperidine hydrochloride], the figures for the “Mean OD (×10^−3), MTT viability” value in series [2] (Dox. 10^−6 M (+)) and in series [2] (absence of Dox. (−)) were 54.50 ×10^−3 and 1226.33 ×10^−3, respectively.
Compound `CC(C)c1nsnc1OCC1=CC(C)(C)N(O)C1(C)C.Cl` [Compound 51] showed a melting point of 155.7 °C. Further, the “Mean OD (×10^−3), MTT viability” value in series [2] (Dox. 10^−6 M (+)) is given as 71.00 ×10^−3. Besides, the “Mean OD (×10^−3), MTT viability” value in series [2] (absence of Dox. (−)) is recorded as 1208.25 ×10^−3.
For the compound `CN1CCN(c2nsnc2OC2CC(C)(C)N(O)C(C)(C)C2)CC1.Cl.Cl` [Compound 52, dihydrochloride], in series [1], the IC50 amounted to 3 µM.
Take `CN1CCN(c2nsnc2OC2CC(C)(C)N(O)C(C)(C)C2)CC1.Cl.Cl` [Compound 52]: the “Mean OD (×10^−3), MTT viability” value was 195.00 ×10^−3 in series [2] (Dox. 10^−6 M (+)) and 1186.33 ×10^−3 in series [2] (absence of Dox. (−)).
On to `CC1(C)CC(Oc2nsnc2N2CCN(c3ccccc3)CC2)CC(C)(C)N1O.Cl.Cl` [Compound 53, 4-(4-phenylpiperazin-1-yl)-3-[(2,2,6,6-tetramethyl-1-hydroxypiperidinyl)-4-oxy]-1,2,5-thiadiazole hydrochloride], for which the figures for the “Mean OD (×10^−3), MTT viability” value in series [2] (Dox. 10^−6 M (+)) and in series [2] (absence of Dox. (−)) were 170.00 ×10^−3 and 1333.75 ×10^−3, respectively.
Turning to `CC1(C)CC(Oc2nsnc2N2CCSCC2)CC(C)(C)N1O.Cl` [Compound 55, 4-(4-(1-hydroxy-2,2,6,6-tetramethylpiperidin-4-yloxy)-1,2,5-thiadiazol-3-yl)thiomorpholine hydrochloride], the melting point is 218 °C (dec.). Moreover, in series [2] (Dox. 10^−6 M (+)), the “Mean OD (×10^−3), MTT viability” value was 285.75 ×10^−3. In addition, the “Mean OD (×10^−3), MTT viability” value in series [2] (absence of Dox. (−)) is recorded as 1037.25 ×10^−3.
Consider `CC1(C)CC(=CC(=O)N2CCN(c3ccccc3)CC2)CC(C)(C)N1O` [Compound 56, hydrochloride], for which the IC50 in series [1] was 12 µM. Moreover, the “Mean OD (×10^−3), MTT viability” value in series [2] (Dox. 10^−6 M (+)) is listed as 308.75 ×10^−3; in series [2] (absence of Dox. (−)) it was 1153.00 ×10^−3.
Regarding `COc1cc(CNC2CC(C)(C)N(O)C(C)(C)C2)cc(OC)c1OC.Cl.Cl` [Compound 58, N-(3,4,5-trimethoxybenzyl)-1-hydroxy-2,2,6,6-tetramethylpiperidin-4-amine dihydrochloride], the melting point stood at 181 °C. Moreover, in series [2] (Dox. 10^−6 M (+)), the “Mean OD (×10^−3), MTT viability” value is on record as 291.50 ×10^−3. Also, the “Mean OD (×10^−3), MTT viability” value in series [2] (absence of Dox. (−)) was 1207.00 ×10^−3.
With `CC1(C)C(CO)=C(c2ccc(F)cc2)C(C)(C)N1O.Cl` [Compound 59, (4-(4-fluorophenyl)-1-hydroxy-2,5-dihydro-2,2,5,5-tetramethyl-1H-pyrrol-3-yl)methanol hydrochloride], the “Mean OD (×10^−3), MTT viability” value is 352.00 ×10^−3 in series [2] (Dox. 10^−6 M (+)) and 1105.00 ×10^−3 in series [2] (absence of Dox. (−)).
`CC1(C)C=C(c2ccc(F)cc2)CC(C)(C)N1O` [Compound 62, hydrochloride]: in series [1], the IC50 is at least 100 µM. The “Mean OD (×10^−3), MTT viability” value in series [2] (Dox. 10^−6 M (+)) is on record as 40.25 ×10^−3; in series [2] (absence of Dox. (−)) it was 184.75 ×10^−3.
`CC1(C)c2ccc(N3CCOCC3)cc2C(C)(C)N1O` [Compound 66, 2-hydroxy-1,1,3,3-tetramethyl-5-morpholinoisoindoline hydrochloride]: in series [1], the IC50 was at least 100 µM.
